Biological target: T1, CDK2/Cyclin A (Homo sapiens, UniProt P24941)
T1 construct: made in house; host or cells: CDK2: insect cells (baculovirus); cyclin A: E. coli
Assay: Inhibition of CDK2/Cyclin A retinoblastoma kinase activity (apparent Ki)
Type: biochemical
Details: read-out: CDK2 Ki
Protocol: Cyclin-dependent kinase activity was measured by quantifying the enzyme-catalyzed, time-dependent incorporation of radioactive phosphate from [^32P]ATP or [^33P]ATP into a protein substrate. […] Reactions were initiated with enzyme, incubated at 30° C., and terminated after 20 minutes by the addition of ethylenediaminetetraacetic acid (EDTA) to 250 mM. […] Radioactivity was quantified by exposing the dried membranes to a phosphorimager.
Apparent Ki values were measured by assaying enzyme activity in the presence of different inhibitor compound concentrations and subtracting the background radioactivity measured in the absence of enzyme. Inhibition data were fit to an equation for competitive inhibition using Kaleidagraph (Synergy Software), or were fit to an equation for competitive tight-binding inhibition using the software KineTic (BioKin, Ltd.).
A complex of CDK2 and proteolyzed cyclin A was prepared and purified by gel filtration. […] Ki values were measured as described above.

| SMILES | Ki |
| --- | --- |
| Cc1c(N)cncc1-c1ccc2[nH]nc(-c3nc4c([nH]3)CCCC4)c2c1 [Example 36, 4-Methyl-5-[3-(4,5,6,7-tetrahydro-1H-benzoimidazol-2-yl)-1H-indazol-5-yl]-pyridin-3-ylamine] | < 50 nM |
| CCNCc1cncc(-c2ccc3[nH]nc(-c4nc(C)c[nH]4)c3c2)c1C [Example 92, N-({4-methyl-5-[3-(4-methyl-1H-imidazol-2-yl)-1H-indazol-5-yl]pyridin-3-yl}methyl)ethanamine] | < 50 nM |
| CCNCc1cncc(-c2ccc3[nH]nc(-c4nc(-c5ccccc5)c(C(=O)NC)[nH]4)c3c2)c1C [Example 6, 2-[5-(5-Ethylaminomethyl-4-methyl-pyridin-3-yl)-1H-indazol-3-yl]-5-phenyl-3H-imidazole-4-carboxylic acid methylamide] | 50 to 200 nM |
| CNCc1cncc(-c2ccc3[nH]nc(-c4nc(C)c[nH]4)c3c2)c1C [Example 93, N-methyl-1-{4-methyl-5-[3-(4-methyl-1H-imidazol-2-yl)-1H-indazol-5-yl]pyridin-3-yl}methanamine] | < 50 nM |
| CCNCc1cncc(-c2ccc3[nH]nc(-c4nc(-c5ccccc5)c(C(=O)NCCCO)[nH]4)c3c2)c1C [Example 17, 2-[5-(5-Ethylaminomethyl-4-methyl-pyridin-3-yl)-1H-indazol-3-yl]-5-phenyl-3H-imidazole-4-carboxylic acid (3-hydroxy-propyl)-amide] | 50 to 200 nM |
| CCNCc1cncc(-c2ccc3[nH]nc(-c4ncc(C(=O)NCCC5=CCCCC5)[nH]4)c3c2)c1C [Example 80, N-(2-cyclohex-1-en-1-ylethyl)-2-(5-{5-[(ethylamino)methyl]-4-methylpyridin-3-yl}-1H-indazol-3-yl)-1H-imidazole-5-carboxamide] | < 50 nM |
| CCNCc1cncc(-c2ccc3[nH]nc(-c4ocnc4C)c3c2)c1C [Example 88, N-({4-methyl-5-[3-(4-methyl-1,3-oxazol-5-yl)-1H-indazol-5-yl]pyridin-3-yl}methyl)ethanamine] | > 200 nM |
| CCNCc1cncc(-c2ccc3[nH]nc(-c4nc(C(=O)NCc5ccccn5)c[nH]4)c3c2)c1C [Example 52, 2-(5-{5-[(ethylamino)methyl]-4-methylpyridin-3-yl}-1H-indazol-3-yl)-N-(pyridin-2-ylmethyl)1H-imidazole-5-carboxamide] | < 50 nM |
| CCNCc1cncc(-c2ccc3[nH]nc(-c4ncc(C(=O)N(CC)CC)[nH]4)c3c2)c1C [Example 56, N,N-diethyl-2-(5-{5-[(ethylamino)methyl]-4-methylpyridin-3-yl}-1H-indazol-3-yl)-1H-imidazole-5-carboxamide] | < 50 nM |
| CCNCc1cncc(-c2ccc3[nH]nc(-c4nc(C(=O)NC5CCCC5)c[nH]4)c3c2)c1C [Example 58, N-cyclopentyl-2-(5-{5-[(ethylamino)methyl]-4-methylpyridin-3-yl}-1H-indazol-3-yl)-1H-imidazole-5-carboxamide] | < 50 nM |
| CCNCc1cncc(-c2ccc3[nH]nc(-c4ncc(C(=O)N5CCN(c6ccccc6)CC5)[nH]4)c3c2)c1C [Example 59, N-{[4-methyl-5-(3-{5-[(4-phenylpiperazin-1-yl)carbonyl]-1H-imidazol-2-yl}-1H-indazol-5-yl)pyridin-3-yl]methyl}ethanamine] | < 50 nM |
| CCNCc1cncc(-c2ccc3[nH]nc(-c4ncc(C(=O)N5CCCC(Cc6ncccn6)CC5)[nH]4)c3c2)c1C (centres unmarked) [Example 79, N-({4-methyl-5-[3-(5-{[4-(pyrimidin-2-ylmethyl)azepan-1-yl]carbonyl}-1H-imidazol-2-yl)-1H-indazol-5-yl]pyridin-3-yl}methyl)ethanamine] | < 50 nM |
| CCNCc1cncc(-c2ccc3[nH]nc(-c4nnn[nH]4)c3c2)c1C [Example 91, Ethyl-{4-methyl-5-[3-(1H-tetrazol-5-yl)-1H-indazol-5-yl]-pyridin-3-ylmethyl}-amine] | > 200 nM |
| Cc1c(N)cncc1-c1ccc2[nH]nc(-c3nc(-c4ccccc4)c[nH]3)c2c1 [Example 39, 4-Methyl-5-[3-(4-phenyl-1H-imidazol-2-yl)-1H-indazol-5-yl]-pyridin-3-ylamine] | < 50 nM |
| CCNCc1cncc(-c2ccc3[nH]nc(-c4nc(-c5ccccc5)c(C(=O)NCCCCO)[nH]4)c3c2)c1C [Example 18, 2-[5-(5-Ethylaminomethyl-4-methyl-pyridin-3-yl)-1H-indazol-3-yl]-5-phenyl-3H-imidazole-4-carboxylic acid (4-hydroxy-butyl)-amide] | > 200 nM |
| CCNCc1cncc(-c2ccc3[nH]nc(-c4nc(-c5ccc(OC)c(OC)c5)c[nH]4)c3c2)c1C [Example 33, (5-{3-[4-(3,4-Dimethoxy-phenyl)-1H-imidazol-2-yl]-1H-indazol-5-yl}-4-methyl-pyridin-3-ylmethyl)-ethyl-amine] | < 50 nM |
| CCNCc1cncc(-c2ccc3[nH]nc(-c4ncc(C(=O)N(CCN(C)C)Cc5ccccc5)[nH]4)c3c2)c1C [Example 81, N-benzyl-N-[2-(dimethylamino)ethyl]-2-(5-{5-[(ethylamino)methyl]-4-methylpyridin-3-yl}-1H-indazol-3-yl)-1H-imidazole-5-carboxamide] | < 50 nM |
| CCNCc1cncc(-c2ccc3[nH]nc(-c4nc(C(=O)N5CCN(C)CC5)c[nH]4)c3c2)c1C [Example 57, N-{[4-methyl-5-(3-{5-[(4-methylpiperazin-1-yl)carbonyl]-1H-imidazol-2-yl}-1H-indazol-5-yl)pyridin-3-yl]methyl}ethanamine] | < 50 nM |
| CCNCc1cncc(-c2ccc3[nH]nc(-c4ncc(C(=O)N5CCN(CCOC)CC5)[nH]4)c3c2)c1C [Example 78, N-({5-[3-(5-{[4-(2-methoxyethyl)piperazin-1-yl]carbonyl}-1H-imidazol-2-yl)-1H-indazol-5-yl]-4-methylpyridin-3-yl}methyl)ethanamine] | < 50 nM |
| CCNCc1cncc(-c2ccc3[nH]nc(-c4nc(-c5ccccc5)c(C(=O)NC5CCCCC5)[nH]4)c3c2)c1C [Example 12, 2-[5-(5-Ethylaminomethyl-4-methyl-pyridin-3-yl)-1H-indazol-3-yl]-5-phenyl-3H-imidazole-4-carboxylic acid cyclohexylamide] | 50 to 200 nM |
| CCNCc1cncc(-c2ccc3[nH]nc(-c4ncc(C(=O)N5C[C@@H](C)O[C@@H](C)C5)[nH]4)c3c2)c1C [Example 60, N-({5-[3-(5-{[(2R,6S)-2,6-dimethylmorpholin-4-yl]carbonyl}-1H-imidazol-2-yl)-1H-indazol-5-yl]-4-methylpyridin-3-yl}methyl)ethanamine] | < 50 nM |
| CCNCc1cncc(-c2ccc3[nH]nc(-c4nc(-c5ccccc5)c(C(=O)NCCN(C)C)[nH]4)c3c2)c1C [Example 16, 2-[5-(5-Ethylaminomethyl-4-methyl-pyridin-3-yl)-1H-indazol-3-yl]-5-phenyl-3H-imidazole-4-carboxylic acid (2-dimethylamino-ethyl)-amide] | > 200 nM |

System: Cyclin-dependent kinase
Assay: Cyclin-dependent kinase inhibition, % inhibition at 10 nM (library Examples 99-270)
Type: biochemical
Details: 10 nM compound
How it was run: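 Enzyme starts the reaction at 30° C, which runs 20 min with 25 μM [³²P/³³P]ATP and protein substrate (pH 7.4, 10 mM MgCl2, 2% DMSO). After EDTA quench, membrane-bound labelled substrate is read by phosphorimaging following acid washes.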

| SMILES | % Inhib @ 10 nM |
| --- | --- |
| CCNCc1cncc(-c2ccc3[nH]nc(-c4ncc(C(=O)NC5CCCCC5)[nH]4)c3c2)c1C [Example 143, N-cyclohexyl-2-(5-{5-[(ethylamino)methyl]-4-methylpyridin-3-yl}-1H-indazol-3-yl)-1H-imidazole-5-carboxamide] | 78% |
| CCNCc1cncc(-c2ccc3[nH]nc(-c4ncc(C(=O)N5CCC(CNC(=O)C(F)(F)F)CC5)[nH]4)c3c2)c1C [Example 170, N-[(1-{[2-(5-{5-[(ethylamino)methyl]-4-methylpyridin-3yl}-1H-indazol-3-yl)-1H-imidazol-5-yl]carbonyl}piperidin-4-yl)methyl]-2,2,2-trifluoroacetamide] | 29% |
| CCNCc1cncc(-c2ccc3[nH]nc(-c4ncc(C(=O)N5CCN(Cc6ccccn6)CC5)[nH]4)c3c2)c1C [Example 228, ethyl({4-methyl-5-[3-(5-{[4-(pyridin-2-ylmethyl)piperazin-1-yl]carbonyl)-1H-imidazol-2-yl)-1H-indazol-5-yl]pyridin-3-yl}methyl)amine] | 50% |
| CCNCc1cncc(-c2ccc3[nH]nc(-c4ncc(C(=O)N5CCCC(O)(CN6CCOCC6)CC5)[nH]4)c3c2)c1C (centres unmarked) [Example 268] | 15% |
| CCNCc1cncc(-c2ccc3[nH]nc(-c4ncc(C(=O)N[C@@H]5CCCC[C@H]5OCc5ccccc5)[nH]4)c3c2)c1C [Example 203, N-[(1R,2R)-2-(benzyloxy)cyclohexyl]-2-(5-{5-[(ethylamino)methyl]-4-methylpyridin-3-yl)-1H-indazol-3-yl)-1H-imidazole-5-carboxamide] | 31% |
| CCNCc1cncc(-c2ccc3[nH]nc(-c4ncc(C(=O)N5CCC6CCCCC6C5)[nH]4)c3c2)c1C (centres unmarked) [Example 149, ethyl[(4-methyl-5-{3-[5-(octahydroisoquinolin-2(1H)-ylcarbonyl)-1H-imidazol-2-yl]-1H-indazol-5-yl}pyridin-3-yl)methyl]amine] | 69% |
| CCNCc1cncc(-c2ccc3[nH]nc(-c4ncc(C(=O)N5CCCC(O)(Cn6cccn6)CC5)[nH]4)c3c2)c1C (centres unmarked) [Example 265, 1-{[2-(5-{5-[(ethylamino)methyl]-4-methylpyridin-3-yl}-1H-indazol-3-yl)-1H-imidazol-5-yl]carbonyl}-4-(1H-pyrazol-1-ylmethyl)azepan-4-ol] | 29% |

From patent US20050090529A1, “3,5 Disubstituted indazole compounds with nitrogen-bearing 5-membered heterocycles, pharmaceutical compositions, and methods for mediating or inhibiting cell proliferation” (PFIZER INC, priority 2003, published 2005)
